Test: xn = mol fraction of the nth substance listed
Settings: Liquid

CO [methanol] + O
excess molar volume [m3/mol]
Settings | 298.15 K | 323.15 K | 348.15 K | 373.15 K | 398.15 K | 423.15 K | 448.15 K | 473.15 K | 498.15 K | 523.15 K
100 kPa, x1 = 0.25 | -7.42e-07 | -7.75e-07 | – | – | – | – | – | – | – | –
100 kPa, x1 = 0.5 | -1.014e-06 | -1.049e-06 | – | – | – | – | – | – | – | –
100 kPa, x1 = 0.75 | -7.05e-07 | -7.38e-07 | – | – | – | – | – | – | – | –
5000 kPa, x1 = 0.25 | -7.13e-07 | -7.41e-07 | -7.75e-07 | -8.26e-07 | -8.9e-07 | -9.81e-07 | -1.223e-06 | -1.902e-06 | – | –
5000 kPa, x1 = 0.5 | -9.63e-07 | -9.91e-07 | -1.022e-06 | -1.082e-06 | -1.146e-06 | -1.247e-06 | -1.583e-06 | -2.545e-06 | – | –
5000 kPa, x1 = 0.75 | -6.74e-07 | -7.02e-07 | -7.58e-07 | -8.14e-07 | -8.68e-07 | -9.59e-07 | -1.163e-06 | -1.736e-06 | – | –
10000 kPa, x1 = 0.25 | -6.85e-07 | -7.07e-07 | -7.33e-07 | -7.67e-07 | -8.12e-07 | -8.74e-07 | -9.78e-07 | -1.285e-06 | -2.081e-06 | –
10000 kPa, x1 = 0.5 | -9.15e-07 | -9.36e-07 | -9.61e-07 | -9.85e-07 | -1.017e-06 | -1.072e-06 | -1.246e-06 | -1.616e-06 | -2.481e-06 | –
10000 kPa, x1 = 0.75 | -6.44e-07 | -6.7e-07 | -7.12e-07 | -7.46e-07 | -7.89e-07 | -8.43e-07 | -9.16e-07 | -1.12e-06 | -1.949e-06 | –
20000 kPa, x1 = 0.25 | -6.27e-07 | -6.4e-07 | -6.5e-07 | -6.6e-07 | -6.68e-07 | -6.78e-07 | -7.11e-07 | -8e-07 | -8.98e-07 | -1.217e-06
20000 kPa, x1 = 0.5 | -8.31e-07 | -8.38e-07 | -8.45e-07 | -8.51e-07 | -8.57e-07 | -8.64e-07 | -8.73e-07 | -8.91e-07 | -9.52e-07 | -1.421e-06
20000 kPa, x1 = 0.75 | -5.93e-07 | -6.05e-07 | -6.23e-07 | -6.44e-07 | -6.56e-07 | -6.65e-07 | -6.88e-07 | -7.38e-07 | -8.16e-07 | -1.204e-06
30000 kPa, x1 = 0.25 | -5.75e-07 | -5.74e-07 | -5.73e-07 | -5.71e-07 | -5.68e-07 | -5.65e-07 | -5.62e-07 | -5.58e-07 | -5.54e-07 | -5.47e-07
30000 kPa, x1 = 0.5 | -7.62e-07 | -7.51e-07 | -7.38e-07 | -7.26e-07 | -7.09e-07 | -6.92e-07 | -6.64e-07 | -6.29e-07 | -5.87e-07 | -5.46e-07
30000 kPa, x1 = 0.75 | -5.53e-07 | -5.49e-07 | -5.37e-07 | -5.28e-07 | -5.19e-07 | -5.12e-07 | -4.93e-07 | -4.65e-07 | -4.28e-07 | -3.91e-07
40000 kPa, x1 = 0.25 | -5.29e-07 | -5.2e-07 | -5.12e-07 | -5.07e-07 | -4.94e-07 | -4.81e-07 | -4.64e-07 | -4.41e-07 | -4.12e-07 | -3.76e-07
40000 kPa, x1 = 0.5 | -7.02e-07 | -6.85e-07 | -6.67e-07 | -6.47e-07 | -6.14e-07 | -5.71e-07 | -5.13e-07 | -4.66e-07 | -4.01e-07 | -3.36e-07
40000 kPa, x1 = 0.75 | -5.14e-07 | -5.02e-07 | -4.81e-07 | -4.58e-07 | -4.35e-07 | -4.2e-07 | -3.86e-07 | -3.3e-07 | -2.7e-07 | -2.01e-07
50000 kPa, x1 = 0.25 | -4.85e-07 | -4.75e-07 | -4.64e-07 | -4.52e-07 | -4.33e-07 | -4.13e-07 | -3.89e-07 | -3.59e-07 | -3.26e-07 | -2.77e-07
50000 kPa, x1 = 0.5 | -6.49e-07 | -6.32e-07 | -6.06e-07 | -5.81e-07 | -5.37e-07 | -4.75e-07 | -4.04e-07 | -3.42e-07 | -2.68e-07 | -1.97e-07
50000 kPa, x1 = 0.75 | -4.65e-07 | -4.55e-07 | -4.4e-07 | -4.14e-07 | -3.8e-07 | -3.49e-07 | -3e-07 | -2.37e-07 | -1.6e-07 | -8.4e-08
60000 kPa, x1 = 0.25 | -4.61e-07 | -4.39e-07 | -4.23e-07 | -4.05e-07 | -3.83e-07 | -3.56e-07 | -3.27e-07 | -2.9e-07 | -2.45e-07 | -1.86e-07
60000 kPa, x1 = 0.5 | -6.02e-07 | -5.84e-07 | -5.58e-07 | -5.21e-07 | -4.75e-07 | -4.01e-07 | -3.18e-07 | -2.41e-07 | -1.61e-07 | -8.4e-08
60000 kPa, x1 = 0.75 | – | -4.28e-07 | -4.06e-07 | -3.72e-07 | -3.33e-07 | -2.84e-07 | -2.23e-07 | -1.58e-07 | -8.4e-08 | -5e-09
